Source: the supplement of paper PMC9402605

How the values were obtained:
Experiment in all cases: number of L4/adult animals relative to DMSO control (development) (fraction of control); higher = more growth (less toxic); extreme values may be limits of the assay
Settings in all cases: concentration unit: uM
CB3474 ben-1(e1880) = tested on: CB3474 ben-1(e1880)
Experimental: (§1)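 About 20 L1 larvae of wild-type or anthelmintic-resistant C. elegans strains were grown in 96-well plates with HB101 E. coli and a compound dilution series (0.6% DMSO). The number of L4/adult animals was counted after 72 h (day 7 for the slow-growing PR1152) and normalised to DMSO wells. Values are the mean of 3 biological replicates, each done in technical triplicate.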

NM1968 slo-1(js379) = tested on: NM1968 slo-1(js379)
Experimental: as §1

N2 = tested on: N2
Experimental: as §1

VC731 unc-63(ok1075) = tested on: VC731 unc-63(ok1075)
Experimental: as §1

RP2674 mev-1(tr393) = tested on: RP2674 mev-1(tr393)
Experimental: as §1

CF1038 daf-16(mu86) = tested on: CF1038 daf-16(mu86)
Experimental: as §1

PR1152 cha-1(p1152) = tested on: PR1152 cha-1(p1152)
Experimental: as §1

CB1072 unc-29(e1072) = tested on: CB1072 unc-29(e1072)
Experimental: as §1

[1] = tested on: DA1316 avr-14;avr-15;glc-1
Experimental: as §1

RB2119 acr-23(ok2804) = tested on: RB2119 acr-23(ok2804)
Experimental: as §1

O=C(NCCc1ncc(C(F)(F)F)cc1Cl)c1ccccc1C(F)(F)F [fluopyram]
number of L4/adult animals
Settings | CB1072 unc-29(e1072) | CB3474 ben-1(e1880) | CF1038 daf-16(mu86) | N2 | NM1968 slo-1(js379) | PR1152 cha-1(p1152) | RB2119 acr-23(ok2804) | RP2674 mev-1(tr393) | VC731 unc-63(ok1075) | [1]
concentration: 0.09375 | 0.915 | 1.01 | 1.02 | 1.06 | 0.984 | 0.97 | 1.01 | 1.1 | 0.961 | 0.958
concentration: 0.1875 | 0.705 | 0.812 | 0.957 | 0.953 | 0.617 | 0.284 | 0.981 | 1.14 | 0.651 | 0.854
concentration: 0.375 | 0.689 | 0.674 | 0.451 | 0.712 | 0.0215 | 0 | 0.372 | 1.01 | 0.305 | 0.176
concentration: 0.75 | 0 | 0 | 0 | 0 | 0 | 0 | 0 | 0.999 | 0 | 0
concentration: 1.5 | 0 | 0 | 0 | 0 | 0 | 0 | 0 | 1.06 | 0 | 0
concentration: 3 | 0 | 0 | 0 | 0 | 0 | 0 | 0 | 1.03 | 0 | 0
concentration: 6 | 0 | 0 | 0 | 0 | 0 | 0 | 0 | 0.91 | 0 | 0

c1ccc([C@H]2CN3CCSC3=N2)cc1 [levamisole]
number of L4/adult animals
Settings | CB1072 unc-29(e1072) | CB3474 ben-1(e1880) | CF1038 daf-16(mu86) | N2 | NM1968 slo-1(js379) | PR1152 cha-1(p1152) | RB2119 acr-23(ok2804) | RP2674 mev-1(tr393) | VC731 unc-63(ok1075) | [1]
concentration: 9.375 | 1.09 | 0.906 | 0.606 | 0.964 | 0.888 | 0.329 | 0.95 | 0.783 | 1 | 0.774
concentration: 18.75 | 1.07 | 0.964 | 0.91 | 0.973 | 0.984 | 0.207 | 0.812 | 0.942 | 1.03 | 1.01
concentration: 37.5 | 1.1 | 1.06 | 1.01 | 1.05 | 0.95 | 0.0255 | 0.632 | 1.04 | 0.996 | 0.984
concentration: 75 | 1.01 | 0.914 | 0.827 | 1.08 | 0.856 | 0.00498 | 0.47 | 0.914 | 1.09 | 0.871
concentration: 150 | 1.08 | 0.627 | 0.678 | 0.535 | 0.595 | 0 | 0.13 | 0.352 | 1.07 | 0.487
concentration: 300 | 0.988 | 0.403 | 0.335 | 0.218 | 0.0768 | 0 | 0.0225 | 0.0923 | 1.02 | 0.106
concentration: 600 | 1.04 | 0.0551 | 0.0591 | 0.0242 | 0 | 0 | 0 | 0.029 | 1.04 | 0.00556
